Reference: PubChem BioAssay AID328 (DTP/NCI, 2004)
“And” between values parts separate entries of the source, which are not always exact repeats. Equal entries are not always repeated. Toxic doses and inconclusive results are not listed.

Test system: BDF1 mice, P388 leukemia ip, median survival T/C
Assay: NCI In Vivo Anticancer Drug Screen. Data for tumor model P388 Leukemia (intraperitoneal) in B6D2F1 (BDF1) mice
Settings: endpoint: median survival time, higher = longer survival
Procedure, shortened: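 Each value expresses how treatment altered survival: treated-mouse outcome over vehicle-mouse outcome, both groups bearing the transplanted tumour.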

[1] = dose: 25.0 mg/kg/injection, schedule: Q04DX003 (ip), vehicle: saline
[2] = dose: 50.0 mg/kg/injection, schedule: Q04DX003 (ip), vehicle: saline
[3] = dose: 100.0 mg/kg/injection, schedule: Q04DX003 (ip), vehicle: saline
[4] = dose: 200.0 mg/kg/injection, schedule: Q04DX003 (ip), vehicle: saline
[5] = dose: 400.0 mg/kg/injection, schedule: Q04DX003 (ip), vehicle: saline
[6] = dose: 50.0 mg/kg/injection, schedule: Q01DX009 (ip), vehicle: saline with Tween-80
[7] = dose: 100.0 mg/kg/injection, schedule: Q01DX009 (ip), vehicle: saline with Tween-80
[8] = dose: 200.0 mg/kg/injection, schedule: Q01DX009 (ip), vehicle: saline with Tween-80
[9] = dose: 100.0 mg/kg/injection, schedule: Q04DX003 (ip), vehicle: saline with Tween-80
[10] = dose: 50.0 mg/kg/injection, schedule: Q04DX003 (ip), vehicle: saline with Tween-80
[11] = dose: 200.0 mg/kg/injection, schedule: Q04DX003 (ip), vehicle: saline with Tween-80

COc1cccc(CCC(=O)O)c1
T/C (dose: 100.0 mg/kg/injection, schedule: Q04DX003 (ip), vehicle: gum acacia): 100 % of control | T/C (dose: 200.0 mg/kg/injection, schedule: Q04DX003 (ip), vehicle: gum acacia): 104 % of control | T/C (dose: 400.0 mg/kg/injection, schedule: Q04DX003 (ip), vehicle: gum acacia): 113 % of control

CC(=O)/C=C/c1ccc2c(c1)OCO2
T/C [1]: 105 % of control | T/C [2]: 103 % of control | T/C [3]: 102 % of control and 114 % of control | T/C [4]: 100 % of control and 108 % of control and 122 % of control | T/C (dose: 300.0 mg/kg/injection, schedule: Q04DX003 (ip), vehicle: saline): 100 % of control and 103 % of control | T/C [5]: 91 % of control and 94 % of control | T/C (dose: 500.0 mg/kg/injection, schedule: Q04DX003 (ip), vehicle: saline): 106 % of control and 109 % of control

Cc1ncc(CO)c(CO)c1O
T/C [3]: 122 % of control | T/C [4]: 113 % of control | T/C [5]: 95 % of control

CN1C(=O)C(C2Sc3ccccc3NC2=O)SC1=S (configuration not stated)
T/C [6]: 102 % of control | T/C [7]: 104 % of control | T/C [8]: 99 % of control

Nc1ccccc1C(=O)N/N=C\c1ccc(O)cc1
T/C [7]: 110 % of control | T/C [8]: 94 % of control

CCOCc1c(COc2ccc(OC)cc2)n(CC#CCOc2ccc(OC)cc2)c2ccc(Br)cc12
T/C [6]: 101 % of control | T/C [7]: 93 % of control | T/C [8]: 98 % of control

N=C(N)N1CCNc2ccccc2C1
T/C [9]: 99 % of control

COc1ccc2c(Nc3ccc(NS(C)(=O)=O)cc3)c3ccccc3nc2c1
T/C (dose: 0.66 mg/kg/injection, schedule: Q01DX009 (ip), vehicle: saline with Tween-80): 169 % of control | T/C (dose: 1.0 mg/kg/injection, schedule: Q01DX009 (ip), vehicle: saline with Tween-80): 194 % of control | T/C (dose: 1.5 mg/kg/injection, schedule: Q01DX009 (ip), vehicle: saline with Tween-80): 201 % of control | T/C (dose: 2.66 mg/kg/injection, schedule: Q04DX003 (ip), vehicle: saline with Tween-80): 150 % of control | T/C (dose: 4.0 mg/kg/injection, schedule: Q04DX003 (ip), vehicle: saline with Tween-80): 163 % of control | T/C (dose: 6.0 mg/kg/injection, schedule: Q04DX003 (ip), vehicle: saline with Tween-80): 172 % of control | T/C (dose: 9.0 mg/kg/injection, schedule: Q04DX003 (ip), vehicle: saline with Tween-80): 168 % of control | T/C (dose: 22.0 mg/kg/injection, schedule: Q04DX003 (ip), vehicle: saline with Tween-80): 200 % of control | T/C [1]: 254 % of control | T/C (dose: 33.0 mg/kg/injection, schedule: Q04DX003 (ip), vehicle: saline with Tween-80): 227 % of control | T/C [10]: 231 % of control | T/C [2]: 240 % of control | T/C (dose: 75.0 mg/kg/injection, schedule: Q04DX003 (ip), vehicle: saline with Tween-80): 281 % of control | T/C [3]: 104 % of control

N=C(N=C(N)N)N1CCOCC1
T/C [10]: 110 % of control | T/C [9]: 115 % of control | T/C [11]: 105 % of control

O=C(O)CNC(=O)/C(=C\c1[nH]c(=O)[nH]c(=O)c1Br)NC(=O)c1ccccc1
T/C [9]: 90 % of control | T/C [11]: 104 % of control | T/C (dose: 400.0 mg/kg/injection, schedule: Q04DX003 (ip), vehicle: saline with Tween-80): 100 % of control

CC(C)=NNC(=O)c1ccccc1
T/C (dose: 25.0 mg/kg/injection, schedule: Q01DX009 (ip), vehicle: saline): 104 % of control | T/C (dose: 25.0 mg/kg/injection, schedule: Q04DX003 (ip), vehicle: saline with Tween-80): 95 % of control | T/C (dose: 50.0 mg/kg/injection, schedule: Q01DX009 (ip), vehicle: saline): 109 % of control | T/C [10]: 95 % of control | T/C [9]: 100 % of control and 113 % of control
